{"source": "patent US10737995B2", "about": "“Nuclear receptor modulators and their use for the treatment and prevention of cancer” (The United States of America, as represented by the …, priority 2011, dated 2020)", "key": {"[1]": {"test_system": "PSA mRNA expression in LNCaP cells", "experiment": "PSA mRNA expression in LNCaP cells, real time RT-PCR", "format": "cell-based, human", "settings": "for block of R1881-induced PSA mRNA induction: in the presence of R1881, dose-dependent manner (FIG. 6); for inhibition of PSA mRNA: LNCaP cells (FIG. 12); for inhibition of PSA mRNA expression: 500 nM (FIG. 9); for agonistic effects on PSA and TMPRSS2 mRNA levels: dose dependent study (FIG. 9)", "method": "FIG. 3 is a graph showing the inhibition of PSA mRNA expression. […] As shown in the graph, a hit was identified that inhibited over 90% PSA mRNA expression in LNCaP cells at 10 μM after 20 hours of treatment.\n(§1) LNCaP cells were incubated for 3 days in phenol red-free RPMI 1640 supplemented with 10% charcoal-stripped FBS and 1% antimycotic-antibiotic solution, and then cells were treated for 20 hours. The concentration of R1881 was 0.5 nM, and that of the corresponding compounds was 10, 5 or 1 μM, respectively. Compound 49 inhibited PSA mRNA expression 80% in the presence of R1881 at 5 μM. This activity was similar to bicalutamide.\n(§2) For PSA, TMPRSS2, and UBE2C mRNA determination, LNCaP cells or 22Rv1 cells, were cultured and treated with the corresponding compounds for 20 hours in the presence or absence of the synthetic androgen R1881. Total RNA was isolated from cultured cells using the RNeasy RNA Isolation Kit (Qiagen). The RNAs were reverse transcribed immediately after RNA extraction with the High Capacity cDNA Reverse Transcription Kit (Applied Biosystems), using random primers included in the kit, according to the manufacturer's instructions. The cDNA products were stored at −20° C. until the PCR analysis was performed. Real-time PCR primers were designed using Primer Express Applications (Applied Biosystems). The primer sequences for real-time PCR were as follows:\n(§3) The mRNA level and total protein in cells were measured after treatment with either control, bicalutamide (0.08 μM to 1.25 μM), or MDV3100 (an antiandrogen) and either about 2.5 μM or about 1.0 μM of Compounds 1-117 respectively. It was known that the expression of PSA mRNA in LNCaP cells is driven by an AR mediated pathway. While PSA is androgen-dependent AR-target gene, UBE2C is androgen-independent AR-target gene. The PSA, TMPRSS2 and UBE2C mRNA levels were normalized by the rRNA level."}, "[2]": {"test_system": "TMPRSS2 mRNA expression in LNCaP cells", "experiment": "TMPRSS2 mRNA expression in LNCaP cells, real time RT-PCR", "format": "cell-based, human", "settings": "for block of R1881-induced TMPRSS2 mRNA induction: in the presence of R1881, dose-dependent manner (FIG. 6); for inhibition of TMPRSS2 mRNA: LNCaP cells (FIG. 12)", "method": "as §1, §2, §3"}, "[3]": {"test_system": "R1881-induced AR translocation to the nucleus", "experiment": "AR translocation, immunocytochemistry in LNCaP cells", "format": "cell-based, human", "settings": "10 μM for three hours, then 1 nM R1881 for three hours (FIG. 7)", "method": "FIG. 7 is a graph showing the results of an AR translocation experiment. LNCaP cells were incubated on cover slips in phenol red free RPMI 1640 with 10% charcoal stripped FBS and 1% antimycotic-antibiotic solution for three days. Cells were treated with DMSO, bicalutamide (10 μM) or Compound 11 for three hours, followed by treatment with 1 nM R1881 for three hours. Cells were washed with PBS, fixed with 0.4% paraformaldehyde for 30 min at 37° C., washed with PBS, permeabilized with 0.4% Triton X-100 for 10 min, and then stained with anti-AR antibody (1:100 dilution, Santa Cruz Biotechnology, Santa Cruz, Calif.) for 1 hour at room temperature. After washing with PBS, cells were stained with FITC-labeled goat anti-rabbit IgG (1:200 dilution, BD Biosciences, San Jose, Calif.) for 1 hour at room temperature. After washing with PBS, cells were incubated for 10 min with Hoechst 33342 for nuclear staining, washed, and the dried cover slips were mounted on glass slides with SlowFade Gold anti-fade reagent (Invitrogen). Fluorescence images were obtained using a Leica® DM IRB fluorescence microscope, and nuclear-to-cytoplasmic AR ratios were measured using OpenLab® (Perkin Elmer, Waltham, Mass.) software. […]"}, "[4]": {"test_system": "UBE2C mRNA expression in LNCaP cells", "experiment": "UBE2C mRNA expression in LNCaP cells, real time RT-PCR", "format": "cell-based, human", "settings": "LNCaP cells (FIG. 12)", "method": "as §2, §3"}, "[5]": {"test_system": "PSA mRNA expression in 22Rv1 cells", "experiment": "PSA mRNA expression in 22Rv1 cells, real time RT-PCR", "format": "cell-based, human", "method": "as §2\n[…] It was known that the expression of PSA mRNA in LNCaP cells is driven by an AR mediated pathway. While PSA is androgen-dependent AR-target gene, UBE2C is androgen-independent AR-target gene. The PSA, TMPRSS2 and UBE2C mRNA levels were normalized by the rRNA level."}, "[6]": {"test_system": "UBE2C mRNA expression in 22Rv1 cells", "experiment": "UBE2C mRNA expression in 22Rv1 cells, real time RT-PCR", "format": "cell-based, human", "settings": "22Rv1 cells (FIG. 13)", "method": "as §2, §3"}, "[7]": {"test_system": "LNCaP cells", "experiment": "LNCaP cell growth, Trypan blue viable cell count", "format": "cell-based", "settings": "Homo sapiens, 72 h, 3 days incubation, Trypan blue viable cell number, read-out: IC50 of LNCaP cell growth inhibition", "method": "LNCaP cells were incubated with Compound 49 for 3 days. Viable cell number was determined by Trypan blue staining and counting in a hemocytometer. The IC50 value of Compound 49 was 3 μM."}, "[8]": {"test_system": "AR in LNCaP cells", "experiment": "AR Western blot, LNCaP cells treated 6 hours", "format": "cell-based, human", "settings": "10 μM (data not shown)", "method": "LNCaP cells were maintained as above. At 50% confluence, cells were washed several times in serum-free RPMI-1640 medium, and re-cultured for 72 hours in RPMI-1640 medium containing 10% charcoal-stripped fetal bovine serum. Cells were treated with R1881 (0.5 nM), with, or without 10 μM, 5 μM or 1 μM of Compounds 1-117, and then cells were cultured for 20 hours. Nuclear and cytoplasmic protein fractionation was performed using NE-PER Nuclear and Cytoplasmic Extraction Reagents Kit (Thermo Scientific Pierce Protein Research Products) according to the manufacturer's instructions. Quantification of AR in nucleus and cytosol was performed by Western blotting with an AR-specific antibody following polyacrylamide gel electrophoresis.\nLNCaP cells were also tested after treatment for only 6 hours. Compounds 49, 80 and 86, as well as KU135 (a C-terminal Hsp90 inhibitor) and 17-AAG (a known AR degradation inducer), were tested at 2.5, 5, and 10 μM as well as control (DMSO vehicle). […] LAPC-4 cells (a human prostate cancer cell line with wt AR) were tested against Compounds 80, 86, KU-32 (another C-terminal Hsp90 inhibitor) and 17-AAG."}, "[9]": {"test_system": "genome-wide transcriptional response", "experiment": "Microarray analysis of genome-wide transcriptional response", "format": "cell-based, human", "method": "This example illustrates that Compound 86 has an impact on AR-driven gene expression (PSA) and androgen-independent AR-driven gene expression (e.g., UBE2C). A microarray analysis was performed on the genome-wide transcriptional response to Compound 86 compared with the antiandrogens bicalutamide and MDV3100, and solvent DMSO. Each compound was tested at two concentrations: 1 and 5 μM. The data were subjected to bioinformatics analysis using the Partek Genomics Software. […] FIG. 19B depicts a different view in 3-dimensional space again reinforcing the differences between Compound 86 versus DMSO, bicalutamide and MDV3100. This visual assessment is consistent with the data showing that Compound 86 and not DMSO, bicalutamide, or MDV3100, can inhibit the androgen-independent, androgen receptor-dependent transcriptional program of castrate-resistant prostate cancer."}, "[10]": {"test_system": "TMPRSS2 mRNA expression in 22Rv1 cells", "experiment": "TMPRSS2 mRNA expression in 22Rv1 cells, real time RT-PCR", "format": "cell-based, human", "settings": "22Rv1 cells (FIG. 13)", "method": "as §2, §3"}, "[11]": {"settings": "LNCaP cells, synthetic androgen R1881 (FIG. 6)"}}}
{"smiles": "COc1ccc(C(=O)/C=C/c2ccc([N+](=O)[O-])cc2)c(OC)c1OC", "note": "[Compound 11]", "values": [{"measurement": "block of R1881-induced PSA mRNA induction", "setting": "[1]", "result": "blocked"}, {"measurement": "block of R1881-induced TMPRSS2 mRNA induction", "setting": "[2]", "result": "blocked"}, {"measurement": "inhibition of R1881-induced AR translocation to the nucleus (nuclear-to-cytoplasmic AR ratio)", "setting": "[3]", "result": "markedly more active than bicalutamide"}]}
{"smiles": "COc1ccc(C(=O)/C=C/c2cccc([N+](=O)[O-])c2)c(OC)c1OC", "note": "[Compound 12]", "values": [{"measurement": "agonistic effect on AR target gene expression", "setting": "[1]; 1 μM, PSA and TMPRSS2, in the presence of R1881 (FIG. 6)", "result": "weak agonistic effect"}, {"measurement": "activity in blocking R1881-induced AR target gene expression relative to Compound 11", "setting": "[1]; high concentrations, PSA and TMPRSS2, in the presence of R1881", "result": "more active"}, {"measurement": "block of R1881-induced PSA mRNA induction", "setting": "[1]", "result": "blocked"}, {"measurement": "block of R1881-induced TMPRSS2 mRNA induction", "setting": "[2]", "result": "blocked"}]}
{"smiles": "COc1ccccc1C(=O)/C=C/c1ccccc1[N+](=O)[O-]", "note": "[Compound 49]", "values": [{"measurement": "inhibition of UBE2C mRNA", "setting": "[4]", "result": "not effective"}, {"measurement": "inhibition of PSA mRNA", "setting": "[1]", "result": "inhibited"}, {"measurement": "inhibition of PSA mRNA expression in the presence of R1881", "setting": "[1]; LNCaP cells, 0.5 nM R1881, 5 μM, 20 hours (FIG. 10)", "result": 80, "unit": "%"}, {"measurement": "inhibition of PSA mRNA expression", "setting": "[1]; LNCaP cells", "result": 50, "unit": "%"}, {"measurement": "agonistic effects on PSA and TMPRSS2 mRNA levels", "setting": "[1]; LNCaP cells", "result": "No agonistic effects"}, {"measurement": "inhibition of PSA mRNA expression compared to control", "setting": "[5]; 22Rv1 cells (FIG. 13)", "result": 80, "unit": "%"}, {"measurement": "inhibition of TMPRSS2 mRNA", "setting": "[2]", "result": "inhibited"}, {"measurement": "inhibition of UBE2C mRNA expression", "setting": "[6]", "result": "completely failed to inhibit"}, {"measurement": "IC50", "setting": "[7]", "result": 3, "unit": "µM"}]}
{"smiles": "COc1cc(C(=O)/C=C/c2cccc([N+](=O)[O-])c2)cc(OC)c1OC", "note": "[Compound 80]", "values": [{"measurement": "inhibition in AR Western blot", "setting": "[8]", "result": "showed inhibition"}]}
{"smiles": "COc1ccc(C(=O)/C=C/c2ccc(C#N)cc2)cc1OC", "note": "[Compound 103]", "values": [{"measurement": "inhibition of UBE2C mRNA", "setting": "[4]", "result": "not effective"}, {"measurement": "inhibition of PSA mRNA", "setting": "[1]", "result": "inhibited"}, {"measurement": "inhibition of PSA mRNA expression", "setting": "[1]; LNCaP cells", "result": 50, "unit": "%"}, {"measurement": "agonistic effects on PSA and TMPRSS2 mRNA levels", "setting": "[1]; LNCaP cells", "result": "No agonistic effects"}, {"measurement": "inhibition of TMPRSS2 mRNA", "setting": "[2]", "result": "inhibited"}]}
{"smiles": "C[C@]1(O)CC[C@H]2[C@@H]3CCC4=CC(=O)CCC4=C3C=C[C@@]21C", "note": "[Compound R1881, methyltrienolone, reference compound]", "values": [{"measurement": "PSA mRNA induction compared with the DMSO control", "setting": "[1]; [11]", "result": "about 500 fold"}, {"measurement": "TMPRSS2 mRNA induction compared with the DMSO control", "setting": "[2]; [11]", "result": "~30", "unit": "fold"}]}
{"smiles": "CNC(=O)c1ccc(N2C(=S)N(c3ccc(C#N)c(C(F)(F)F)c3)C(=O)C2(C)C)cc1F", "note": "[MDV3100, 4-(3-(4-cyano-3-(trifluoromethyl)phenyl)-5,5-dimethyl-4-oxo-2-thioxoimidazolidin-1-yl)-2-fluoro-N-methylbenzamide]", "values": [{"measurement": "inhibition of the androgen-independent, androgen receptor-dependent transcriptional program of castrate-resistant prostate cancer", "setting": "[9]", "result": "not"}, {"measurement": "sensitivity of PSA mRNA expression", "setting": "[5]; 22Rv1 cells, 20 hours of exposure, 10 μM (FIG. 14)", "result": "insensitive"}]}
{"smiles": "CC(O)(CS(=O)(=O)c1ccc(F)cc1)C(=O)Nc1ccc(C#N)c(C(F)(F)F)c1", "note": "(stereo not drawn) [bicalutamide, reference compound]", "values": [{"measurement": "IC50", "setting": "[1]; Homo sapiens, LNCaP cells, dose-dependent study (FIG. 4), read-out: IC50 of PSA mRNA inhibition", "result": 0.3, "unit": "µM"}, {"measurement": "inhibition of TMPRSS2 mRNA expression", "setting": "[10]", "result": "No inhibition"}, {"measurement": "inhibition of PSA mRNA expression", "setting": "[5]; 22Rv1 cells (FIG. 13)", "result": "No inhibition"}, {"measurement": "inhibition of UBE2C mRNA expression", "setting": "[6]", "result": "No inhibition"}]}
